Measured values from patent US8614187B2, “Peptides, compositions and uses thereof” (The Queen's University of Belfast, priority 2007, dated 2013).

Legend:
[1] = system: rat tail arterial smooth muscle preparation; assay: Rat tail artery smooth muscle bioassay (relaxation of phenylephrine-preconstricted artery); type: cell-based; settings: for % Maximum Response (relaxation): rat tail artery, pre-constricted, at optimum concentration
Procedure: (A) Arterial Smooth Muscle:
Male albino Wistar rats (200-350 g) were euthanized by asphyxiation followed by cervical dislocation.
The tail artery was prepared as previously described (Hirst et al (1994) Br. J. Radiol. 67, 795-799). Incubation buffer was 95% O2/5% CO2 oxygenated Krebs' solution (NaCl 118 mM, KCl 4.7 mM, NaHCO3 25 mM, NaH2 PO4 1.15 mM, CaCl2 2.5 mM, MgCl2 1.1 mM, glucose 5.6 mM). Constriction or dilation of the arterial smooth muscle preparation was detected by an increase or decrease in pressure generated by water column displacement using pressure transducers connected to a MacLab System (AD Instruments Pty Ltd. Australia). […] Viability was determined using a range of bolus phenylephrine (5 μM-10 μM) exposures and the endothelial layer of the artery was removed by bubbling with oxygen for 10 s. Absence of the endothelial layer was confirmed by the lack of relaxation in response to a 30 min perfusion of acetylcholine (50 μM) after preconstriction with phenylephrine (10 μM).
(§1) For intestinal smooth muscle preparations, one cm thick rings of ileum were carefully placed onto the pins of a MacLab force transducer, one pin acting as a stationary fixed point while the second pin was free, permitting application of tension to the smooth muscle. The muscle rings were gradually exposed to 0.1 g increments in resting tension until the spontaneous contractions originated from a resting tension of 0.5 g. The contracting muscle preparations were allowed to stabilise for 25 min before the application of peptides. After perfusion of arterial preparations with 10 μM phenylephrine to obtain constriction plateaux, relative relaxation was recorded following applications of peptides in the range of 1×10^−5-1×10^−10 M. The intestinal smooth muscle ring preparations were exposed to peptide doses as above and relative changes in tension were recorded.

HMEC-1 [2] = assay: Endothelial cell proliferation assay (MTT); type: cell-based, human
Procedure: FIG. 4 illustrates the effect of the QUB 698.8 peptide on the proliferation of HMEC-1 over 72 hours compared to a non-treatment control.
(§2) • 1. […] Selective arterial smooth muscle dilators often have pro-angiogenic properties so QUB 698.8 was subjected to a range of appropriate bioassays to determine spectra of activity. • 4. In the human microvessel endothelial cell wound scrape assay, cells are grown on a glass slide to confluence, a standard-sized wound is made with a pipette tip and time taken to repair tear is measured. QUB 698.8 promoted wound closure 42% faster than non-treated controls at an optimum effective concentration of 10 nanomolar (Table 1—panel B and FIGS. 2a and b). • 5. Using an in vitro endothelial cell angiogenic tubule formation assay (Matrigel) QUB 698.8 induced 75% more tubules than time-matched controls at an optimum concentration of 1 nanomolar (Table 1—panel B and FIG. 3). • 6. […] (Table 1—panel B and FIG. 4). This may be indicative of a rapid role in cell cycle synchronization.

HMEC-1 [3] = assay: In vitro endothelial cell angiogenic tubule formation assay (Matrigel); type: cell-based, human
Procedure: FIG. 3 illustrates the effect of the QUB 698.8 peptide on the ability of HMEC-1 to form tubules on matrigel matrices.
as §2

[4] = system: Human Microvascular Endothelial Cells (HMEC-1); assay: Human microvessel endothelial cell wound scrape (migration) assay; type: cell-based
Procedure: as §2

[5] = system: rat ileal smooth muscle ring preparation; assay: Rat ileum smooth muscle ring bioassay (constriction of spontaneously contracting ileum); type: cell-based; settings: for % Maximum Response (constriction): spontaneously contracting rat ileum, at optimum concentration
Source text: (B) Small Intestinal Smooth Muscle:
as §1

[6] = migration wound scrape, T = 7 dose response

DLPKIN [QUB 698.8, Asp-Leu-Pro-Lys-Ile-Asn]
Response of rat tail arterial smooth muscle preparation [1]: dose-dependent relaxation
Optimum concentration for maximal effect, arterial compared to ileal smooth muscle ([1]; arterial vs ileal smooth muscle): two orders of magnitude lower
EC50 ([1]; rat tail artery relaxation): 7 nM
Optimum Concentration ([1]; rat tail artery relaxation): 10^−7 M
Potency relative to bradykinin ([1]; rat tail artery relaxation): almost equipotent with bradykinin
Potency relative to maximakinin ([1]; rat tail artery relaxation): more potent than maximakinin
% Maximum Response (relaxation) [1]: 25% relaxation
Endothelial cell number compared to non-treated controls after 48 h (HMEC-1 [2]; after 48 h): no significant differences
Other information: proliferation after 24 hrs (HMEC-1 [2]; beyond 24 hrs): No further
EC50 (HMEC-1 [2]; proliferation): 0.0659 nM
Optimum Concentration (HMEC-1 [2]; proliferation): 10^−8 M
Peptide effect (HMEC-1 [2]; stimulator of endothelial cell proliferation): Potent
Peptide effect (HMEC-1 [3]; stimulator of endothelial tubule formation): Potent
EC50 (HMEC-1 [3]; tubule formation): 0.0526 nM
Optimum Concentration (HMEC-1 [3]; tubule formation): 10^−9 M
Optimum concentration (HMEC-1 [3]; tubule formation): 1 nM
Time to 50% wound closure ([4]; migration wound scrape, Other information): T = 3 hrs
EC50 [4, 6]: 0.339 nM
Optimum Concentration [4, 6]: 10^−8 M
Peptide effect ([4]; migration wound scrape, T = 7 dose response: promoter of wound closure): Potent
Optimum effective concentration ([4]; wound closure): 10 nM
Optimum Concentration ([4]; wound scrape total time to closure): 10^−8 M
Time to complete wound closure ([4]; wound scrape total time to closure, 10^−8 M): 16 h
Peptide effect ([4]; wound scrape total time to closure: stimulator of initial endothelial migration): Potent
Response of rat ileal smooth muscle ring preparation [5]: dose-dependent constriction
EC50 ([5]; rat ileum constriction): 1440 nM
Optimum Concentration ([5]; rat ileum constriction): 10^−5 M
Potency relative to bradykinin and maximakinin ([5]; rat ileum constriction): less potent than both bradykinin and maximakinin
% Maximum Response (constriction) [5]: 52% Constriction

DLPKINRKGPRPPGFSPFR [Mx, Asp-Leu-Pro-Lys-Ile-Asn-Arg-Lys-Gly-Pro-Arg-Pro-Pro-Gly-Phe-Ser-Pro-Phe-Arg, reference compound]
EC50 ([1]; rat tail artery relaxation): 6.18 nM
Optimum Concentration ([1]; rat tail artery relaxation): 10^−7 M
% Maximum Response (relaxation) [1]: 30% relaxation
EC50 ([5]; rat ileum constriction): 534 nM
Optimum Concentration ([5]; rat ileum constriction): 10^−6 M
% Maximum Response (constriction) [5]: 52% Constriction
